Assays:
Type in all cases: biochemical
[1] = molecular target: T1, recombinant soluble tissue factor and recombinant human factor VIIa (Homo sapiens, UniProt P08709); experiment: TF-VIIa Assay; details: chromogenic substrate, 60 min at room temperature, pH 8.0
T1 construct: purchased American Diagnostica, Greenwich Conn; (factor VIIa); soluble TF made in house; host or cells: E. coli (soluble TF only)
Procedure: In this assay 100 nM recombinant soluble tissue factor and 2 nM recombinant human factor VIIa are added to a 96-well assay plate containing 0.4 mM of the substrate, N-Methylsulfonyl-D-phe-gly-arg-p-nitroaniline and either inhibitor or buffer (5 mM CaCl2, 50 mM Tris-HCl, pH 8.0, 100 mM NaCl, 0.1% BSA). The reaction, in a final volume of 100 ul is measured immediately at 405 nm to determine background absorbance. The plate is incubated at room temperature for 60 min, at which time the rate of hydrolysis of the substrate is measured by monitoring the reaction at 405 nm for the release of p-nitroaniline. Percent inhibition of TF-VIIa activity is calculated from OD405 nm value from the experimental and control sample.
(§1) Recombinant soluble TF, consisting of amino acids 1-219 of the mature protein sequence was expressed in E. coli and purified using a Mono Q Sepharose FPLC. Recombinant human VIIa was purchased from American Diagnostica, Greenwich Conn. and chromogenic substrate N-Methylsulfonyl-D-phe-gly-arg-p-nitroaniline was prepared by American Peptide Company, Inc., Sunnyvale, Calif. Factor Xa was obtained from Enzyme Research Laboratories, South Bend Ind., thrombin from Calbiochem, La Jolla, Calif., and trypsin and L-BAPNA from Sigma, St Louis Mo. The chromogenic substrates S-2765 and S-2238 were purchased from Chromogenix, Sweden.

[2] = molecular target: human thrombin (Homo sapiens, UniProt P00734); experiment: Thrombin Assay; details: chromogenic substrate, 60 min at room temperature, pH 8.0; read-out: Thrombin II IC50
Procedure: (§2) 0.28 nM human thrombin and 0.06 mM H-D-Phenylalanyl-L-pipecolyl-L-argioine-p-nitroaniline dihydrochloride are added to a 96-well assay plate containing either inhibitor or buffer (50 mM Tris-HCl, pH 8.0, 100 mM NaCl, 0.1% BSA). The reaction, in a final volume of 100 ul is measured immediately at 405 nm to determine background absorbance. The plate is incubated at room temperature for 60 min, at which time the rate of hydrolysis of the substrate is measured by monitoring the reaction at 405 nm for the release of p-nitroaniline. Percent inhibition of thrombin activity is calculated from OD405 nm value from the experimental and control sample.
as §1

[3] = molecular target: T2, human factor Xa (Homo sapiens, UniProt P00742); experiment: Xa Assay; details: substrate S-2765, 60 min at room temperature, pH 8.0
T2 construct: leads from XII to XIIa to XIa to IXa and to the conversion of X to Xa; purchased Enzyme Research Laboratories, South Bend Ind
T2 sequence (P00742 235-488 limits assumed): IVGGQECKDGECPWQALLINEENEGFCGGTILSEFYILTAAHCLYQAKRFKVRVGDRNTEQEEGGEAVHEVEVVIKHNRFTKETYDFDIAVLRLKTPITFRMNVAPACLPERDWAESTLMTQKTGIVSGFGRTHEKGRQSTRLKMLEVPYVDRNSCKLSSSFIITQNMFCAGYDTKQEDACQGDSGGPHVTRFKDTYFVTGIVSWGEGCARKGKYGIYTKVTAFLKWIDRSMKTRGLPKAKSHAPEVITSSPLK
T2 sequence (P00742 41-179 limits assumed): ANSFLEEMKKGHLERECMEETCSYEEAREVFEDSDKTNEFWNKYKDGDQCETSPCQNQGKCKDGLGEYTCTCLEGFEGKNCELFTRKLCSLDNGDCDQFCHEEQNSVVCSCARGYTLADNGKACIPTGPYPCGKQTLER
Procedure: as §2, with “0.3 nM” for “0.28 nM”, “human factor Xa” for “human thrombin”, “and 0.15” for “and 0.06”, “mM N-α-Benzyloxycarbonyl-D-arginyl-L-glycyl-L-arginine-p-nitroaniline-dihydrochloride (S-2765)” for “mM H-D-Phenylalanyl-L-pipecolyl-L-argioine-p-nitroaniline dihydrochloride”, “of Xa” for “of thrombin”
as §1

[4] = molecular target: T3, trypsin, type IX from porcine pancreas (Sus scrofa, UniProt P00761); experiment: Trypsin Assay; details: substrate L-BAPNA, 60 min at room temperature, pH 8.0; read-out: Trypsin II IC50
T3 construct: purchased Sigma, St Louis Mo. type IX; host or cells: porcine pancreas
T3 sequence (P00761 9-231): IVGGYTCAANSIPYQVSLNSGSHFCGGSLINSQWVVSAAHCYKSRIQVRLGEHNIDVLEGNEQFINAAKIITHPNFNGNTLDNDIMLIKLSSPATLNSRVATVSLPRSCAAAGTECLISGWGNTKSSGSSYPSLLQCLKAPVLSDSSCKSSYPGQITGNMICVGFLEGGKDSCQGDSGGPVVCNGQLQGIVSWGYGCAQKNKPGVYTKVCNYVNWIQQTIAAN
Procedure: 5 ug/ml trypsin, type IX from porcine pancreas and 0.375 mM N-α-Benzoyl-L-arginine-p-nitroanilide (LBAPNA) are added to a 96-well assay plate containing either inhibitor or buffer (50 mM Tris-HCl, pH 8.0, 100 mM NaCl, 0.1% BSA). The reactions, in a final volume of 100 ul are measured immediately at 405 nm to determine background absorbance. The plate is incubated at room temperature for 60 min, at which time the rate of hydrolysis of the substrate is measured by monitoring the reaction at 405 nm for the release of p-nitroaniline. Percent inhibition of trypsin activity is calculated from OD405 nm value from the experimental and control sample.
as §1

T1 sequence (P08709 213-466 limits assumed): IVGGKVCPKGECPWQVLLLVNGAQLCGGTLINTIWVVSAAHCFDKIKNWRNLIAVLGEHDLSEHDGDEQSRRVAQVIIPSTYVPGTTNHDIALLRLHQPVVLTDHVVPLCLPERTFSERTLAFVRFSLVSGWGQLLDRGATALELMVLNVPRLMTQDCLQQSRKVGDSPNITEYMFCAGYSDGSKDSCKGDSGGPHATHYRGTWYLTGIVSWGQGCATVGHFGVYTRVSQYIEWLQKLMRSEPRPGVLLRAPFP
T1 sequence (P08709 61-212 limits assumed): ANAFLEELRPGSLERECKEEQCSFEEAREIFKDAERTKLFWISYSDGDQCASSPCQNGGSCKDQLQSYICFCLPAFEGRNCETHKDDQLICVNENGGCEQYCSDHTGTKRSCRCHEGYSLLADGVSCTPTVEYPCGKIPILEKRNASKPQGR
T1 sequence (P13726 33-251 partner limits assumed): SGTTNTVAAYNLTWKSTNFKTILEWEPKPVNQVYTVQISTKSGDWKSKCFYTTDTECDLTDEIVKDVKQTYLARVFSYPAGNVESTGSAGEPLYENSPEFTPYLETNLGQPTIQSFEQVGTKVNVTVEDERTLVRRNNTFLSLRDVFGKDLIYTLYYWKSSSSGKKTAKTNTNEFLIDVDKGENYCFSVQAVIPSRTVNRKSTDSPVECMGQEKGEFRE

Row | Structure (SMILES) | IC50 [1] | IC50 [2] | IC50 [3] | IC50 [4]
1 | N=C(N)c1ccc(CNC(=O)Cn2c(=O)c(NS(=O)(=O)Cc3ccccc3)cn(Cc3ccccc3)c2=O)cc1 [Example 1] | > 100000 nM | 13000 nM | 25600 nM | 400 nM
2 | N=C(N)NCCC[C@H](NC(=O)Cn1c(=O)c(NS(=O)(=O)Cc2ccccc2)cn(Cc2ccccc2)c1=O)C(=O)c1nccs1 [Example 2] | 12900 nM | 300 nM | 200 nM | 200 nM

— patent publication US6716838B1, “Substituted polycyclic aryl and heteroaryl uracils as anticoagulative agents” (Pharmacia Corporation, priority 1999, dated 2004)
